What all share (assay type): cell-based
Assay [1] has as its target T1, M4 muscarinic receptor expressing cells (M4R) (Homo sapiens, UniProt P08173).
T1 sequence (P08173 1-479): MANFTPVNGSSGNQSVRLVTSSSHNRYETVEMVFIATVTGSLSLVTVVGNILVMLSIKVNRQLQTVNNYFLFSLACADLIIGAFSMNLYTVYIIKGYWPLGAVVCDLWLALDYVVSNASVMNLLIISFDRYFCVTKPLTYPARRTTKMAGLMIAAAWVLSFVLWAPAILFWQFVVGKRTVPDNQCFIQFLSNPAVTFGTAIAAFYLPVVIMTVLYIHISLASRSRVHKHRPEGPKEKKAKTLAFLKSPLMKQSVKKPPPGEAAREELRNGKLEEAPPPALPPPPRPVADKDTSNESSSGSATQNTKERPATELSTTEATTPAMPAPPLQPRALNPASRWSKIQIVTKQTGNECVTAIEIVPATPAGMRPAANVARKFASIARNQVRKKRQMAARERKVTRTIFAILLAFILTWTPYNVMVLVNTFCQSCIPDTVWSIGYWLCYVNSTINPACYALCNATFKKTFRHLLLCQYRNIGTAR
Kind of assay: Label-free endpoint response on BIND Reader, M4R cells. As to conditions: for Endpoint response of M4R cells to ligand: first addition, 10uM carbachol or 50 nM ET-1, M4R cells plated alone. The method, then: (§1) The response of the two or more cell types to the stimuli or test reagent can be also detected by a BIND® READER (colorimetric resonant reflectance biosensor system). For example, Endothelin receptor expressing cells (ETaR) and M4 muscarinic receptor expressing cells (M4R) were plated on CA2 cellular matrix-coated colorimetric resonant reflectance biosensor plates in starvation media. The cells were pre-treated with antagonists (either atropine to inhibit M4 or BMS to inhibit ETaR) for 30 min. […] Data are referenced to buffer controls.
(§2) The ETaR cells and M4R cells were then treated with a second ligand.

The next assay deals with M5/RBL cells. Kind of assay: Label-free response of 1:1 mixed RBL and M5/RBL cells on BIND SCANNER. As to conditions: 1:1 mixed population of RBL+M5/RBL cells. How it is done: RBL and M5/RBL cells were mixed in a 1:1 ratio and were plated in colorimetric resonant reflectance biosensor wells. The cells were allowed to attach to the biosensor and the attachment reaction was detected on a BIND® SCANNER. Acetylcholine was added to the biosensor surface. […] Approximately 50% of a 1:1 mixed population of RBL+M5/RBL cells responded to acetylcholine. The responding cells can be gated and analyzed for quantitative responses (e.g., responses to additional test reagents or stimuli) independent of non-responding population. Therefore, the presence of different types of cells on a biosensor can be detected when their response to a ligand is known.

In assay [2] the target is T2, Endothelin receptor expressing cells (ETaR) (Homo sapiens, UniProt P25101).
T2 sequence (P25101 21-427): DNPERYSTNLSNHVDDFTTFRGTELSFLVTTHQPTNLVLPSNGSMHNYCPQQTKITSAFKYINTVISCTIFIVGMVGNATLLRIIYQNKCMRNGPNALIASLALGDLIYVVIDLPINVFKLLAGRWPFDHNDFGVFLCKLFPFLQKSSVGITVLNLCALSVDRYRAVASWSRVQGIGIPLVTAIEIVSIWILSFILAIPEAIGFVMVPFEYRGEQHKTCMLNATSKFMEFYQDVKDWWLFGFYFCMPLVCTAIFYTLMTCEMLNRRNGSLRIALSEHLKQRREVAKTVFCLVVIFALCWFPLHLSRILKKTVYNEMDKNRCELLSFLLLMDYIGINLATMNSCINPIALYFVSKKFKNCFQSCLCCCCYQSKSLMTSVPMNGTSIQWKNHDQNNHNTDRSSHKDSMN
Kind of assay: Label-free endpoint response on BIND Reader, ETaR cells. Particulars: first addition; 10uM carbachol or 50 nM ET-1; ETaR cells plated alone. How it is done:
as §1, §2

Another assay deals with Rat MSC cells. As to the kind of experiment: Rat MSC movement on fibronectin-coated biosensor. Particulars: attachment signal zeroed out. How it is done: Rat MSC cells were added to a biosensor coated with fibronectin. Cell attachment was detected on a colorimetric resonant reflectance biosensor at 3 hours and 16 hours. The attachment signal was zeroed out and the cells were stimulated with SDF-1α or were not stimulated. Movement of the cells can be seen in the right panels of FIG. 12. The darker spots are where the cells were prior to detection and the lighter spots are where the cells are when the reaction was detected. […] An enhanced signal can be seen on the cell edges where movement and/or cell adhesion is occurring. The enhanced signal correlates with the leading edge of the cells as they move across the biosensor as evidenced by time lapse imaging. This is consistent with extracellular matrix-integrin engagement of the cells. […] An approximately 7 to 10 fold improvement in signal to noise is observed.

The next assay has as its target T3, CXCR4 (Homo sapiens, UniProt P61073).
T3 construct: endogenous in cells; host or cells: THP-1 cells, 'OEM' cells, MSC cells
Kind of assay: Label-free response to SDF-1α on BIND READER. Particulars: THP-1 cells, OEM cells, MSC cells; different concentrations. From the text: SDF-1α binds to and activates CXCR4, a GPCR. Stem cells will move to tissues releasing gradients of SDF-1α. Damaged tissue releases elevated levels of SDF-1α resulting in increased migration of mesenchymal stem cells to sites of injury. Chemotactic factors induce significant changes in the actin cytoskeleton of cells upon receptor activation. These changes are manifested as directional movement when the chemokine is presented as a gradient. SDF-1α induces the migration of mesenchymal stem cells and osteoblast progenitor cells. Overexpression of CXCR4 results in improved MSC migration and homing to sites of vascular injury.

In a further assay the test system is rat MSC cell. As to the kind of experiment: Rat MSC attachment to ECM-coated biosensors. Particulars: ovalbumin, fibronectin, laminin or collagen biosensors. An excerpt: In certain cases cells, such as stem cell or primary cells, have varying reactions to ligands depending upon what extracellular matrix component is present on the surface of the biosensor. This preference can be determined for each type of cell. […] The mP-M5 and mP-M4 cells show the best reaction to the ligands when they are on biosensors comprising fibronectin or collagen. […] Cells can be tested to determine the best ligand/ECM coating for attachment to the biosensor.

Assay [3] addresses cells expressing α4/β1 integrin receptors (Homo sapiens, UniProt P05556+P13612). As to the kind of experiment: Cell attachment PWV shift on ECM ligand coated wells. Particulars: for PWV shift of attached cells: immobilized on biosensor surface. From the text:
For example, cells expressing α4/β1 integrin receptors, which are known to bind to fibronectin ligands, but not to collagen or laminin ligands, generate a PWV shift on fibronectin coated wells that is about 8 to 10 times greater than the PWV shift observed on collagen or laminin surfaces.

These results are taken from patent publication US20120058507A1, “Clonal Derivation and Cell Culture quality Control Screening Methods” (SRU Biosystems, Inc., priority 2009, published 2012).

Chain of cells expressing α4/β1 integrin receptors (P13612 34-1032): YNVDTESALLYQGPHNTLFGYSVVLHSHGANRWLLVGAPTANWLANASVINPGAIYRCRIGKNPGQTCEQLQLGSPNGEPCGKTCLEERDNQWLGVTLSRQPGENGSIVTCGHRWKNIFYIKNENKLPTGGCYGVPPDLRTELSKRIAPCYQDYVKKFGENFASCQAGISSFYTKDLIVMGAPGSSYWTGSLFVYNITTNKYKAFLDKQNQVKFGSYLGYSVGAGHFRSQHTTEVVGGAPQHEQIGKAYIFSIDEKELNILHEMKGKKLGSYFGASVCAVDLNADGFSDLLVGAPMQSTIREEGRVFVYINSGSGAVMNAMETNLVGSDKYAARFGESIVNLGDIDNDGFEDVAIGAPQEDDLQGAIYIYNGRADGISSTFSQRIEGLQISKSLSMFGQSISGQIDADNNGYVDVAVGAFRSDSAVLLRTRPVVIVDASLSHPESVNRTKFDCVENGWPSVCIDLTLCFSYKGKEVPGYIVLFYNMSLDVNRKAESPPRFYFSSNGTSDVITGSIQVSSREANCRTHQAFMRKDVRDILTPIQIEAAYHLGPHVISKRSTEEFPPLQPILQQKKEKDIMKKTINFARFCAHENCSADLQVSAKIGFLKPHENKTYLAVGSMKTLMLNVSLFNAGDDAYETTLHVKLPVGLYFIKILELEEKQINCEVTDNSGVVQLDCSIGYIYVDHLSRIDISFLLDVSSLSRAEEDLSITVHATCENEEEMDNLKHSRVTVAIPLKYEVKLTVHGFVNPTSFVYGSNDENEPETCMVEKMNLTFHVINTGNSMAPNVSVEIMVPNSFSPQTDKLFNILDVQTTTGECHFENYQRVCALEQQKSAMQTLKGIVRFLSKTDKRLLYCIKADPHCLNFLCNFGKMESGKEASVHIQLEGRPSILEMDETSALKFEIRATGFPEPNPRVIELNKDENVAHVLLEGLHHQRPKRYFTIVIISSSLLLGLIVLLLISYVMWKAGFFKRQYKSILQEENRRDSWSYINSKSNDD
Chain of cells expressing α4/β1 integrin receptors (P05556 21-798): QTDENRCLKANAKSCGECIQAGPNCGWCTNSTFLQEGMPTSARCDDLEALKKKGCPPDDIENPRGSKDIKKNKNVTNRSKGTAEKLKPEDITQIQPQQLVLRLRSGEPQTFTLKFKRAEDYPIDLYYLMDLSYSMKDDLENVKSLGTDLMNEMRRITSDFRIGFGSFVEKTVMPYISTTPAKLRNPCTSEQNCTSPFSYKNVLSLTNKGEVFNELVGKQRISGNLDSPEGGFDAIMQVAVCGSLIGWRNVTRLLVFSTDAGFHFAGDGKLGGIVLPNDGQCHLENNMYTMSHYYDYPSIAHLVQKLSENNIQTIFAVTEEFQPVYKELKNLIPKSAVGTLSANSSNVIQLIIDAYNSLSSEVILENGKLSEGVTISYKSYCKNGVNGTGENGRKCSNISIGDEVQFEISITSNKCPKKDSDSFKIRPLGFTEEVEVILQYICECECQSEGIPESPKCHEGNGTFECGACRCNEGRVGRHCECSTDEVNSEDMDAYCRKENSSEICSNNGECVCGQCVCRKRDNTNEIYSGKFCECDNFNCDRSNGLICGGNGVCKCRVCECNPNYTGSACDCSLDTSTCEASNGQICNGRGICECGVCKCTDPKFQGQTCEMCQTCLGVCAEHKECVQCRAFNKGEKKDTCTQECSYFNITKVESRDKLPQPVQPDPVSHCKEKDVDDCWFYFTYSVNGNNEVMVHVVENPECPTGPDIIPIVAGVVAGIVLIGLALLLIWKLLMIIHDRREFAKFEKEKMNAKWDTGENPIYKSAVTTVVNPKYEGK
T3 sequence (P61073 whole entry, species assumed): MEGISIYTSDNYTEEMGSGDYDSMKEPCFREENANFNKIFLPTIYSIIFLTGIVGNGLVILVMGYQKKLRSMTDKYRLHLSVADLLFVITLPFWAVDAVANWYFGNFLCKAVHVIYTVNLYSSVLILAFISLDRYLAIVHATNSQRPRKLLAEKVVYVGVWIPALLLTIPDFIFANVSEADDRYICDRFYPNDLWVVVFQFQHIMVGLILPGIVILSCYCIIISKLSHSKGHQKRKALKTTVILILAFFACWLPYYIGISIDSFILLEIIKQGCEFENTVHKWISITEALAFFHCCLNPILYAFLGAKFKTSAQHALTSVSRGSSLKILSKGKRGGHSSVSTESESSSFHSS

With `CN1[C@@H]2CC[C@H]1C[C@@H](OC(=O)C(CO)c1ccccc1)C2` (stereo partly drawn) [Atropine, atropine], the “Inhibition of carbachol response in M4R cells” value in assay [1] (antagonist pre-treatment 30 min, then 10uM carbachol) is “completely inhibited”.
Regarding `CC(=O)OCC[N+](C)(C)C` [acetylcholine], the “Fraction of mixed cell population responding” value with M5/RBL cells was “Approximately 50%”.
With `C[N+](C)(C)CCOC(N)=O` [carbachol], the “Endpoint response of ETaR cells to ligand” value in assay [2] is reported as “not to carbachol”. Besides, in assay [1], the “Endpoint response of M4R cells to ligand” value was “respond to carbachol”. The “Response of M4R cells to second ligand” value in assay [1] (second addition, after ET-1 stimulation) is “respond to carbachol, even after ET-1 stimulation”.
As to “ET-1: ligand to which Endothelin receptor expressing cells (ETaR) respond”, the “Endpoint response of M4R cells to ligand” value in assay [1] is listed as “not to ET-1”.
As to SDF-1α, in the assay with Rat MSC cells, the “Cell movement and morphology after stimulation” value is recorded as “movement of the cells is seen along with a spreading out of the cells”. Further, on CXCR4, the Label-free cell response entry is “rapid and robust response”.
As for collagen, the “Cell attachment compared with other surfaces” value in the assay on rat MSC cell is “better than the other surfaces”. Also, in assay [3], the “PWV shift of attached cells” value was “resembles background cell attachment signal”.
For fibronectin, the “PWV shift relative to collagen or laminin surfaces” value in assay [3] (coated wells) was in the range of 8 to 10 times.
Consider laminin, for which the “PWV shift of attached cells” value in assay [3] is given as “resembles background cell attachment signal”.
